From patent publication US12180207B2 (ARRAY BIOPHARMA INC., priority 2018, dated 2024)

Experiments:
[1] = target: recombinant human FGFR1 catalytic domain (amino acids 308-731) (Homo sapiens (Human), UniProt P11362); experiment: FGFR1 enzyme activity assay (LanthaScreen TR-FRET); format: biochemical; settings: 20 min incubation at 22° C., average of multiple determinations if made, read-out: FGFR1 Enz FRET IC50
Method: FGFR1 kinase activity was measured by the Invitrogen LanthaScreen™ Assay technology which directly measures the amount of substrate phosphorylation by Time-resolved fluorescence energy transfer (TR-FRET) using a fluorescently-labeled peptide and Europium-labeled antibody. Briefly, […] His-tagged recombinant human FGFR1 catalytic domain (amino acids 308-731) (Life Technologies Cat. No. PR4660A) was incubated with 100 nM Alexa Fluor® 647-Poly-GT Peptide Substrate (Life Technologies Cat. No. PV5836) and […] ATP along with test compound in a buffer consisting of 250 mM HEPES, 25 mM MgCl2, 0.05% TritonX-100, pH 7.5, and 2% DMSO. […] After a 20 minutes incubation at 22° C., an equal volume of 2 nM LanthaScreen® Eu-PY20 Antibody (Life Technologies Cat. No. PV5691) and 10 mM EDTA was added to quench the kinase reaction and start the detection reaction. After an additional 60 minute incubation at 22° C., the reaction was measured using a PerkinElmer EnVision multimode plate reader via TR-FRET dual wavelength detection, and the percent of control (POC) calculated using a ratiometric emission factor. 100 POC was determined using no test compounds and 0 POC was determined using no enzyme. The POC values were fit to a 4-parameter logistic curve as a function of the concentration of the compound, and the IC50 value is the point where the curve crosses 50 POC.

[2] = target: recombinant human FGFR2 cytoplasmic domain (amino acids 403-822) (Homo sapiens (Human), UniProt P21802); experiment: FGFR2 enzyme activity assay (LanthaScreen TR-FRET); format: biochemical; settings: 15 μM ATP, 20 min incubation at 22° C., average of multiple determinations if made, read-out: FGFR2 Enz FRET IC50
Method: FGFR2 kinase activity was measured by the Invitrogen LanthaScreen™ Assay technology which directly measures the amount of substrate phosphorylation by TR-FRET using a fluorescently-labeled peptide and Europium-labeled antibody. Briefly, […] His-tagged recombinant human FGFR2 cytoplasmic domain (amino acids 403-822) (Life Technologies Cat. No. PR5332A) was incubated with 100 nM Alexa Fluor® 647-Poly-GT Peptide Substrate (Life Technologies Cat. No. PV5836) and 15 μM ATP along with test compound in a buffer consisting of 250 mM HEPES, 25 mM MgCl2, 0.05% TritonX-100, pH 7.5, and 2% DMSO. […] After a 20 minute incubation at 22° C., an equal volume of 2 nM LanthaScreen® Eu-PY20 Antibody (Life Technologies Cat. No. PV5691) and 10 mM EDTA were added to quench the kinase reaction and start the detection reaction. After an additional 60 minute incubation at 22° C., the reaction was measured using a PerkinElmer EnVision multimode plate reader via TR-FRET dual wavelength detection, and the percent of control (POC) calculated using a ratiometric emission factor. 100 POC was determined using no test compounds and 0 POC was determined using no enzyme. The POC values were fit to a 4-parameter logistic curve as a function of the concentration of the compound, and the IC50 value is the point where the curve crosses 50 POC.

[3] = target: recombinant human FGFR3 (amino acids R397-T806) (Homo sapiens (Human), UniProt P22607); experiment: FGFR3 enzyme activity assay (LanthaScreen TR-FRET); format: biochemical; settings: 25 μM ATP, 10 min incubation at 22° C., average of multiple determinations if made, read-out: FGFR3 Enz FRET IC50
Method: FGFR3 kinase activity was measured by the Invitrogen LanthaScreen™ Assay technology which directly measures the amount of substrate phosphorylation by TR-FRET using a fluorescently-labeled peptide and Europium-labeled antibody. Briefly, […] N-terminal GST-HIS6 fusion protein with a 3C cleavage site recombinant human FGFR3 (amino acids R397-T806) (ProQinase Cat. No. 1068-0000-1) was incubated with 100 nM Alexa Fluor® 647-Poly-GT Peptide Substrate (Life Technologies Cat. No. PV5836) and 25 μM ATP along with test compound in a buffer consisting of 250 mM HEPES, 25 mM MgCl2, 0.05% TritonX-100, pH 7.5, and 2% DMSO. […] After a 10 minute incubation at 22° C., an equal volume of 2 nM LanthaScreen® Eu-PY20 Antibody (Life Technologies Cat. No. PV5691) and 10 mM EDTA were added to quench the kinase reaction and start the detection reaction. After an additional 60 minute incubation at 22° C., the reaction was measured using a PerkinElmer EnVision multimode plate reader via TR-FRET dual wavelength detection, and the percent of control (POC) calculated using a ratiometric emission factor. 100 POC was determined using no test compounds and 0 POC was determined using no enzyme. The POC values were fit to a 4-parameter logistic curve as a function of the concentration of the compound, and the IC50 value is the point where the curve crosses 50 POC.

[4] = target: dephosphorylated FGFR1 (SEQ ID NO: 1, amino acids 458 to 765) (Homo sapiens (Human), UniProt P11362); experiment: FGFR enzyme binding assay (HTRF tracer displacement), FGFR1; settings: 5 nM dephosphorylated FGFR1, average of multiple determinations if made
Method: (§1) The potency of compounds inhibiting human isoforms of FGFR kinase was determined using Life Technologies' Homogeneous Time Resolved Fluorescence (HTRF)-based binding assay technology. […] After a 60 minute incubation at 22° C., the extent of tracer displacement was determined using a PerkinElmer EnVision multimode plate reader via HTRF dual wavelength detection, and the percent of control (POC) was calculated using a ratiometric emission factor. One hundred POC was determined using no test compound, and 0 POC was determined in the presence of 1 μM of an appropriate control inhibitor.

[5] = target: FGFR1 (SEQ ID NO: 1, amino acids 458-765) (Homo sapiens (Human), UniProt P11362); experiment: LC/MS FGFR1 kobs assay (covalent protein modification); format: binding; settings: 500 nM FGFR1, 3 μM compound
Method: (§2) The LC/MS FGFR1 and FGFR3 kobs assays were conducted as follows. […] At each time point, the reaction was quenched with 20 μL of 0.4% formic acid. The extent of protein modification by each compound was determined by LC/MS on an Agilent Technologies 6520 Q-TOF LC/MS. Protein signals were then automatically deconvoluted using Agilent Masshunter software. Deconvoluted mass signals were exported to Tibco Spotfire data analysis program for further processing and normalization.
(§3) Data analysis included five steps. First, the signals for the “DMSO Controls” were analyzed to determine the percent of signal associated with unmodified FGFR1 or FGFR3 at each time point. Next, the percent of the signal associated with the covalent modification was determined. Third, the average nonmodified “DMSO Control” signal was used to normalize the modified protein signals at each time point. The percent of unmodified protein was fit to an exponential decay model where A0 is the Percent Unmodified at the start of the reaction, and kobs is the observed rate constant over the time period.

[6] = target: phosphorylated FGFR3 (SEQ ID NO: 5, amino acids 449 to 759) (Homo sapiens (Human), UniProt P22607); experiment: FGFR enzyme binding assay (HTRF tracer displacement), FGFR3; settings: 5 nM phosphorylated FGFR3, average of multiple determinations if made
Method: as §1

[7] = target: FGFR3 (SEQ ID NO: 5, amino acids 449-759) (Homo sapiens (Human), UniProt P22607); experiment: LC/MS FGFR3 kobs assay (covalent protein modification); format: binding; settings: 500 nM FGFR3, 3 μM compound
Method: as §2, §3
Table EC contains kobs values for compounds tested in these assays, presented as the average of multiple determinations if multiple determinations were made. ND=not determined.

Sequence of recombinant human FGFR3 (amino acids R397-T806) (P22607 397-806): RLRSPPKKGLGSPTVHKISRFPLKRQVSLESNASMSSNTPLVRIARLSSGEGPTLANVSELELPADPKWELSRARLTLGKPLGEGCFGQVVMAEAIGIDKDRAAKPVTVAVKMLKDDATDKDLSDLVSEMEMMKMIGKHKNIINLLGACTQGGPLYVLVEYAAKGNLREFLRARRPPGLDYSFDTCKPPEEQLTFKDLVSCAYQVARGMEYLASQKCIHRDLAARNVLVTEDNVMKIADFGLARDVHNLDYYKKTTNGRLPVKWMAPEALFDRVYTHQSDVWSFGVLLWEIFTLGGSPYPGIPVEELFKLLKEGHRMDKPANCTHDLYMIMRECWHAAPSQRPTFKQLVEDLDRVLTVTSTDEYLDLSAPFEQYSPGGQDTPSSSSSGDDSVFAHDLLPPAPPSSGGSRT
Sequence of recombinant human FGFR2 cytoplasmic domain (amino acids 403-822) (P21802 402-821): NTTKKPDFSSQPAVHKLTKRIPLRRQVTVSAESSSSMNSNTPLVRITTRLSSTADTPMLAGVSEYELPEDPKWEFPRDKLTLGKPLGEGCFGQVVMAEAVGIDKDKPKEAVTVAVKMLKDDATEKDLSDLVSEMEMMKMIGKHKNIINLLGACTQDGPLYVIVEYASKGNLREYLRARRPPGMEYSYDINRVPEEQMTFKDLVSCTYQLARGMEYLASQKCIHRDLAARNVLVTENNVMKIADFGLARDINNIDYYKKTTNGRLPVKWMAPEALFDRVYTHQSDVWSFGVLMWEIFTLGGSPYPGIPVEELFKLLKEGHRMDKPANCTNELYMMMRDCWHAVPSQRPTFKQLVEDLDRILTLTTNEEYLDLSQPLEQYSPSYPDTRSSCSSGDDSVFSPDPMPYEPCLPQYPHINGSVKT
Sequence of FGFR1 (SEQ ID NO: 1, amino acids 458-765) (P11362 458-765): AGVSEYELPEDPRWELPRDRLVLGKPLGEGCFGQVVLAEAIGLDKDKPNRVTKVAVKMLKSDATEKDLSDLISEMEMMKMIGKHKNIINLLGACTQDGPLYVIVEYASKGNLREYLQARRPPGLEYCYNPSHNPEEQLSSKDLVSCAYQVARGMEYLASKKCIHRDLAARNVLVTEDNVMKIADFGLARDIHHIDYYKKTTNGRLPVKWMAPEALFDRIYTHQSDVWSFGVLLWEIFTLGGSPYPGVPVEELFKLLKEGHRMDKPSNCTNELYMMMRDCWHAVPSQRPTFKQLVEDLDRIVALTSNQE
Sequence of dephosphorylated FGFR1 (SEQ ID NO: 1, amino acids 458 to 765) (P11362 458-765): as above
Sequence of recombinant human FGFR1 catalytic domain (amino acids 308-731) (P11362 other isoform, or with tags, fused parts or gaps): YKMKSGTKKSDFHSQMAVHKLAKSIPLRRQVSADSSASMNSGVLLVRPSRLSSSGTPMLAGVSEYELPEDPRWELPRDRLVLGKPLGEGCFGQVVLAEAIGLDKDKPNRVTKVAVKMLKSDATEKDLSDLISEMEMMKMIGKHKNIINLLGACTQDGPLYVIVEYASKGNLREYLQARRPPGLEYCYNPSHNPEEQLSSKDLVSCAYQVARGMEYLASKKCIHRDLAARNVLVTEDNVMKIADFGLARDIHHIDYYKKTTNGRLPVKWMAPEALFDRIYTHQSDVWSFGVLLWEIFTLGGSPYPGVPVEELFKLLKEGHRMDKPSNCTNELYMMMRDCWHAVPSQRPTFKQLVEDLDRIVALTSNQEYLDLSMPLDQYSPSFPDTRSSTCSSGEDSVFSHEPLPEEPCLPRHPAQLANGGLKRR
Sequence of FGFR3 (SEQ ID NO: 5, amino acids 449-759) (P22607 449-759): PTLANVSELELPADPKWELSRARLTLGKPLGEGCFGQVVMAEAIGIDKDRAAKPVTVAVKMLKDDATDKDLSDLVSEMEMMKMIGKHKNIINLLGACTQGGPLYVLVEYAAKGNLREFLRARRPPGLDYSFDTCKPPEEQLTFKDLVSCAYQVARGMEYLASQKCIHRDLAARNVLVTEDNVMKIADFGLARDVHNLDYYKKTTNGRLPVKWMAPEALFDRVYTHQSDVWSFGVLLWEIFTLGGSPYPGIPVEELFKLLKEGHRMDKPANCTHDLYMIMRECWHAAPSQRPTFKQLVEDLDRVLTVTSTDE
Sequence of phosphorylated FGFR3 (SEQ ID NO: 5, amino acids 449 to 759) (P22607 449-759): as above

IC50 [1] [µM]	IC50 [2] [µM]	IC50 [3] [µM]	IC50 [4] [µM]	FGFR1 Enz kobs [5] [min⁻¹]	IC50 [6] [µM]	FGFR3 Enz kobs [7] [min⁻¹]	Compound
0.055	0.008	0.008	0.29	0.00058	0.041	0.00158	C=CC(=O)N1CC[C@@H](C(=O)N2CC[C@@H](n3cc(-c4cc(OC)c5c(C#N)cnn5c4)cn3)C2)C1 [Example 58, 6-(1-((R)-1-((R)-1-acryloylpyrrolidine-3-carbonyl)pyrrolidin-3-yl)-1H-pyrazol-4-yl)-4-methoxypyrazolo[1,5-a]pyridine-3-carbonitrile]
0.013		0.004	0.104	0.00047	0.011	0.00281	CC#CC(=O)N1CC(C(=O)N2CCC(n3cc(-c4cc(OC)c5c(C#N)cnn5c4)cn3)CC2)C1 [Example 139, 6-(1-(1-(1-(but-2-ynoyl)azetidine-3-carbonyl)piperidin-4-yl)-1H-pyrazol-4-yl)-4-methoxypyrazolo [1,5-a]pyridine-3-carbonitrile]
0.026	0.007	0.003	0.199	0.0005	0.062	0.0013	C=CC(=O)N1CCC[C@H](C(=O)N2CC[C@H](n3cc(-c4cc(OC)c5c(C#N)cnn5c4)cn3)C2)C1 [Example 63, 6-(1-((S)-1-((S)-1-acryloylpiperidine-3-carbonyl)pyrrolidin-3-yl)-1H-pyrazol-4-yl)-4-methoxypyrazolo[1,5-a]pyridine-3-carbonitrile]
0.016	0.005	0.006	0.058	0.00068	0.008	0.00626	C=CC(=O)N1CC[C@@H](C(=O)N2CCN(c3ccc(-c4cc(OC)c5c(C#N)cnn5c4)cn3)CC2)C1 [Example 110, (R)-6-(6-(4-(1-acryloylpyrrolidine-3-carbonyl)piperazin-1-yl)pyridin-3-yl)-4-methoxypyrazolo[1,5-a]pyridine-3-carbonitrile]
0.012	0.004	0.006	0.056	0.0006	0.008	0.00352	C=CC(=O)N1CCC(C(=O)N2CCN(c3ccc(-c4cc(OC)c5c(C#N)cnn5c4)cn3)CC2)CC1 [Example 109, 6-(6-(4-(1-acryloylpiperidine-4-carbonyl)piperazin-1-yl)pyridin-3-yl)-4-methoxypyrazolo[1,5-a]pyridine-3-carbonitrile]
0.026	0.006	0.003	0.177		0.056	0.0002	C=CC(=O)N[C@H]1CC[C@H](C(=O)N2CC[C@H](n3cc(-c4cc(OC)c5c(C#N)cnn5c4)cn3)C2)CC1 [Example 65, N-((1S,4r)-4-((S)-3-(4-(3-cyano-4-methoxypyrazolo[1,5-a]pyridin-6-yl)-1H-pyrazol-1-yl)pyrrolidine-1-carbonyl)cyclohexyl)acryl-amide]
0.019	0.006	0.002	0.018		0.003	0.00063	C=CC(=O)N[C@H]1C[C@H](C(=O)N2CC[C@H](n3cc(-c4cc(OC)c5c(C#N)cnn5c4)cn3)C2)C1 [Example 74, N-((1S,3r)-3-((S)-3-(4-(3-cyano-4-methoxypyrazolo[1,5-a]pyridin-6-yl)-1H-pyrazol-1-yl)pyrrolidine-1-carbonyl)cyclobutyl)acryl-amide]
0.188	0.042	0.058	0.552		0.128	0.0007	C=CC(=O)N1CCC(Oc2cccc(-n3cc(-c4cc(OC)c5c(C#N)cnn5c4)cn3)c2)CC1 [Example 26, 6-(1-(3-((1-acryloylpiperidin-4-yl)oxy)phenyl)-1H-pyrazol-4-yl)-4-methoxypyrazolo[1,5-a]pyridine-3-carbonitrile]
0.036	0.011	0.01	0.447		0.079	0.00116	C=CC(=O)N[C@H]1C[C@H](C(=O)N2CC(n3cc(-c4cc(OC)c5c(C#N)cnn5c4)cn3)C2)C1 [Example 79, N-((1r,3r)-3-(3-(4-(3-cyano-4-methoxypyrazolo[1,5-a]pyridin-6-yl)-1H-pyrazol-1-yl)azetidine-1-carbonyl)cyclobutyl)acryl-amide]

Compound	IC50 [1] [µM]	IC50 [2] [µM]	IC50 [3] [µM]	IC50 [4] [µM]	FGFR1 Enz kobs [5] [min⁻¹]	IC50 [6] [µM]	FGFR3 Enz kobs [7] [min⁻¹]
C=CC(=O)N1CC2CC(C1)N2C(=O)N1CCC(n2cc(-c3cc(OC)c4c(C#N)cnn4c3)cn2)CC1 [Example 4, 6-(1-(1-(3-acryloyl-3,6-diazabicyclo[3.1.1]heptane-6-carbonyl)piperidin-4-yl)-1H-pyrazol-4-yl)-4-methoxypyrazolo[1,5-a]pyridine-3-carbonitrile]	0.011	0.004	0.003	0.042	0.00052	0.006	0.00283
